# Values of other authors, collected in patent US8734864B2, “Methods for increasing human growth hormone levels” (Quality IP Holdings, LLC, priority 2012, dated 2014).
# Experiments:
# [1] = tested on: hGH secretion; conditions: for Increase in hGH (in words): other amino acids, literature
# [2] = subcutaneous injection of 0.06 IU, GH deficient subjects
Molecule,Increase in hGH (in words) [1],other results
N=C(N)NCCC[C@H](N)C(=O)O [arginine],–,"Elevation of serum hGH levels ([1]; 30 g, males): 8.6 fold; Increase of hGH levels ([1]; intravenous infusion of 183 mg/kg body weight, females): > 20 fold"
N[C@@H](Cc1c[nH]cn1)C(=O)O [histidine],marked increases in hGH,–
NCCCC[C@H](N)C(=O)O [lysine],marked increases in hGH,–
CSCC[C@H](N)C(=O)O [methionine],marked increases in hGH,–
NCCC[C@H](N)C(=O)O [ornithine],marked increases in hGH,–
N[C@@H](Cc1ccccc1)C(=O)O [phenylalanine],marked increases in hGH,–
HGH: human growth hormone given by subcutaneous injection to GH deficient subjects (literature),–,Mean levels of GH reached [2]: 0.4 ng/mL
